Source: PubChem BioAssay AID328 (DTP/NCI, 2004)
Several values for one entry are separate records, joined by “and”; a condition that tells them apart may be missing. Identical values can stand only once. Inconclusive results and toxic doses are left out.

Test system: BDF1 mice, P388 leukemia ip, median survival T/C
Experiment: NCI In Vivo Anticancer Drug Screen. Data for tumor model P388 Leukemia (intraperitoneal) in B6D2F1 (BDF1) mice
Details: endpoint: median survival time, higher = longer survival
Experimental: The antitumor activity of compounds was measured in mice bearing transplantable tumors. Survival or tumor size were measured and the results are expressed as the measurement made in the treated group (T) divided by the measurement made in the vehicle treated control group (C). The tumor model used in this assay is P388 Leukemia (intraperitoneal) in B6D2F1 (BDF1) mice

[1] = dose: 100.0 mg/kg/injection, schedule: Q01DX001 (ip), vehicle: Klucel (hydroxypropylcellulose) (HPC)
[2] = dose: 100.0 mg/kg/injection, schedule: Q04DX003 (ip), vehicle: Klucel (hydroxypropylcellulose) (HPC)
[3] = dose: 200.0 mg/kg/injection, schedule: Q01DX001 (ip), vehicle: Klucel (hydroxypropylcellulose) (HPC)
[4] = dose: 200.0 mg/kg/injection, schedule: Q04DX003 (ip), vehicle: Klucel (hydroxypropylcellulose) (HPC)
[5] = dose: 50.0 mg/kg/injection, schedule: Q01DX009 (ip), vehicle: saline
[6] = dose: 100.0 mg/kg/injection, schedule: Q01DX009 (ip), vehicle: saline
[7] = dose: 200.0 mg/kg/injection, schedule: Q01DX009 (ip), vehicle: saline
[8] = dose: 100.0 mg/kg/injection, schedule: Q04DX002 (ip), vehicle: saline with Tween-80
[9] = dose: 200.0 mg/kg/injection, schedule: Q04DX002 (ip), vehicle: saline with Tween-80
[10] = dose: 50.0 mg/kg/injection, schedule: Q01DX009 (ip), vehicle: saline with Tween-80
[11] = dose: 100.0 mg/kg/injection, schedule: Q01DX009 (ip), vehicle: saline with Tween-80
[12] = dose: 200.0 mg/kg/injection, schedule: Q01DX009 (ip), vehicle: saline with Tween-80
[13] = dose: 100.0 mg/kg/injection, schedule: Q04DX003 (ip), vehicle: saline
[14] = dose: 200.0 mg/kg/injection, schedule: Q04DX003 (ip), vehicle: saline
[15] = dose: 100.0 mg/kg/injection, schedule: Q04DX003 (ip), vehicle: saline with Tween-80
[16] = dose: 6.25 mg/kg/injection, schedule: Q01DX009 (ip), vehicle: saline
[17] = dose: 12.5 mg/kg/injection, schedule: Q01DX009 (ip), vehicle: saline
[18] = dose: 25.0 mg/kg/injection, schedule: Q04DX003 (ip), vehicle: saline
[19] = dose: 50.0 mg/kg/injection, schedule: Q04DX003 (ip), vehicle: saline
[20] = dose: 75.0 mg/kg/injection, schedule: Q01DX009 (ip), vehicle: saline
[21] = dose: 25.0 mg/kg/injection, schedule: Q01DX009 (ip), vehicle: saline

O=c1[nH]cc(F)c(=O)n1C1OC(CO)C(O)C1O (stereo unspecified)
T/C (dose: 0.75 mg/kg/injection, schedule: Q01DX009 (ip), vehicle: saline): 169 % of control and 180 % of control | T/C (dose: 1.5 mg/kg/injection, schedule: Q01DX009 (ip), vehicle: saline): 162 % of control and 217 % of control | T/C (dose: 3.0 mg/kg/injection, schedule: Q01DX009 (ip), vehicle: saline): 230 % of control and 188 % of control | T/C (dose: 6.0 mg/kg/injection, schedule: Q01DX009 (ip), vehicle: saline): 100 % of control

O=C(c1ccc([N+](=O)[O-])cc1)C(Br)C(Br)c1ccncc1 (stereo unspecified)
T/C (dose: 50.0 mg/kg/injection, schedule: Q01DX001 (ip), vehicle: Klucel (hydroxypropylcellulose) (HPC)): 105 % of control | T/C [1]: 110 % of control | T/C [2]: 113 % of control | T/C [3]: 115 % of control | T/C [4]: 113 % of control | T/C (dose: 400.0 mg/kg/injection, schedule: Q04DX003 (ip), vehicle: Klucel (hydroxypropylcellulose) (HPC)): 113 % of control

O=C1CCS2(CCC(=O)O2)O1
T/C [5]: 98 % of control | T/C [6]: 94 % of control | T/C [7]: 98 % of control

CN(C)c1ccc(/C=C/c2ccnc3c(N)cccc23)cc1
T/C [8]: 110 % of control | T/C [9]: 113 % of control | T/C (dose: 400.0 mg/kg/injection, schedule: Q04DX002 (ip), vehicle: saline with Tween-80): 116 % of control

O=[N+]([O-])c1ccc(N/N=C/C(Br)(Br)Br)c([N+](=O)[O-])c1
T/C [10]: 111 % of control | T/C [11]: 104 % of control | T/C [12]: 103 % of control

CCOS(C)(=O)=O
T/C [5]: 90 % of control | T/C [6]: 100 % of control | T/C [13]: 100 % of control | T/C [14]: 105 % of control

C[CH2][Pb]([CH2]C)([CH2]C)[O]C(=O)c1ccc(N)cc1
T/C (dose: 0.75 mg/kg/injection, schedule: Q01DX009 (ip), vehicle: Klucel (hydroxypropylcellulose) (HPC)): 100 % of control | T/C (dose: 1.5 mg/kg/injection, schedule: Q01DX009 (ip), vehicle: Klucel (hydroxypropylcellulose) (HPC)): 110 % of control | T/C (dose: 1.56 mg/kg/injection, schedule: Q01DX009 (ip), vehicle: Klucel (hydroxypropylcellulose) (HPC)): 111 % of control | T/C (dose: 3.0 mg/kg/injection, schedule: Q01DX009 (ip), vehicle: Klucel (hydroxypropylcellulose) (HPC)): 110 % of control and 117 % of control | T/C (dose: 3.12 mg/kg/injection, schedule: Q01DX009 (ip), vehicle: Klucel (hydroxypropylcellulose) (HPC)): 114 % of control and 119 % of control | T/C (dose: 6.0 mg/kg/injection, schedule: Q01DX009 (ip), vehicle: Klucel (hydroxypropylcellulose) (HPC)): 119 % of control and 122 % of control | T/C (dose: 6.25 mg/kg/injection, schedule: Q01DX009 (ip), vehicle: Klucel (hydroxypropylcellulose) (HPC)): 104 % of control | T/C (dose: 12.0 mg/kg/injection, schedule: Q01DX009 (ip), vehicle: Klucel (hydroxypropylcellulose) (HPC)): 99 % of control | T/C (dose: 12.5 mg/kg/injection, schedule: Q01DX009 (ip), vehicle: Klucel (hydroxypropylcellulose) (HPC)): 93 % of control and 106 % of control

C=C(Cl)CSCCCS
T/C (dose: 130.0 mg/kg/injection, schedule: Q01DX009 (ip), vehicle: saline): 95 % of control | T/C [7]: 104 % of control | T/C (dose: 300.0 mg/kg/injection, schedule: Q01DX009 (ip), vehicle: saline): 118 % of control

c1c2c(cc3c1OC1=C(CCCCCCCCCC1)C3)OC1=C(CCCCCCCCCC1)C2
T/C [10]: 102 % of control | T/C [11]: 100 % of control | T/C [12]: 86 % of control

CC(C)(C)C(=O)/C=C/c1ccccc1
T/C [10]: 94 % of control | T/C [11]: 90 % of control | T/C [12]: 105 % of control

CC1C=CCC2C(=O)OC(=O)C12 (stereo unspecified)
T/C (dose: 25.0 mg/kg/injection, schedule: Q04DX003 (ip), vehicle: saline with Tween-80): 100 % of control | T/C (dose: 50.0 mg/kg/injection, schedule: Q04DX003 (ip), vehicle: saline with Tween-80): 100 % of control | T/C [15]: 100 % of control

O=C(NO)c1ccc(O)cc1
T/C (dose: 100.0 mg/kg/injection, schedule: Q04DX003 (ip), vehicle: saline sonified): 118 % of control | T/C (dose: 132.0 mg/kg/injection, schedule: Q04DX003 (ip), vehicle: saline sonified): 100 % of control | T/C (dose: 200.0 mg/kg/injection, schedule: Q04DX003 (ip), vehicle: saline sonified): 100 % of control

COc1ccc(NC(=O)CC(C)=O)cc1
T/C [16]: 98 % of control | T/C [17]: 91 % of control | T/C [18]: 111 % of control | T/C [5]: 108 % of control | T/C [19]: 102 % of control | T/C [6]: 110 % of control | T/C [13]: 98 % of control | T/C [7]: 106 % of control | T/C [14]: 116 % of control | T/C (dose: 400.0 mg/kg/injection, schedule: Q01DX009 (ip), vehicle: saline): 98 % of control | T/C (dose: 400.0 mg/kg/injection, schedule: Q04DX003 (ip), vehicle: saline): 93 % of control

c1ccc(Nc2ccc(Nc3ccccc3)cc2)cc1
T/C (dose: 50.0 mg/kg/injection, schedule: Q04DX003 (ip), vehicle: Klucel (hydroxypropylcellulose) (HPC)): 118 % of control | T/C [1]: 90 % of control | T/C [2]: 104 % of control | T/C [3]: 100 % of control | T/C [4]: 104 % of control | T/C (dose: 400.0 mg/kg/injection, schedule: Q01DX001 (ip), vehicle: Klucel (hydroxypropylcellulose) (HPC)): 90 % of control

CCN(CC)CC(C)OC(=O)c1ccc(N)cc1 (stereo unspecified)
T/C (dose: 33.0 mg/kg/injection, schedule: Q01DX009 (ip), vehicle: saline): 92 % of control | T/C [5]: 100 % of control | T/C [20]: 104 % of control | T/C [6]: 100 % of control | T/C [13]: 95 % of control | T/C [14]: 86 % of control

O=C(Nc1ccccc1C(F)(F)F)Oc1ccc(Cl)cc1Cl
T/C [15]: 122 % of control | T/C (dose: 200.0 mg/kg/injection, schedule: Q04DX003 (ip), vehicle: saline with Tween-80): 109 % of control | T/C (dose: 400.0 mg/kg/injection, schedule: Q04DX003 (ip), vehicle: saline with Tween-80): 118 % of control

C=CCOP(=O)(N1CC1C)N1CC1C (stereo unspecified)
T/C [16]: 106 % of control | T/C [17]: 99 % of control | T/C [21]: 106 % of control | T/C (dose: 30.0 mg/kg/injection, schedule: Q04DX003 (ip), vehicle: saline): 109 % of control | T/C (dose: 45.0 mg/kg/injection, schedule: Q04DX003 (ip), vehicle: saline): 118 % of control | T/C [20]: 150 % of control and 161 % of control | T/C [6]: 117 % of control | T/C [13]: 180 % of control and 188 % of control | T/C (dose: 150.0 mg/kg/injection, schedule: Q04DX003 (ip), vehicle: saline): 188 % of control

CSc1ncc2n1C=CN(C(=O)c1ccc([N+](=O)[O-])cc1)C2O (stereo unspecified)
T/C [17]: 99 % of control | T/C [21]: 87 % of control | T/C [18]: 107 % of control | T/C [5]: 92 % of control | T/C [19]: 94 % of control | T/C [13]: 93 % of control | T/C [14]: 90 % of control

COc1ccc(C=Nc2c(N)[nH]c(=S)[nH]c2=O)cc1
T/C [8]: 115 % of control and 117 % of control | T/C [9]: 105 % of control and 117 % of control

C[Si](C)(C)O[Si](C)(C)c1ccccc1
T/C (dose: 100.0 mg/kg/injection, schedule: Q01DX001 (ip), vehicle: saline): 104 % of control | T/C (dose: 200.0 mg/kg/injection, schedule: Q01DX001 (ip), vehicle: saline): 95 % of control | T/C (dose: 400.0 mg/kg/injection, schedule: Q01DX001 (ip), vehicle: saline): 95 % of control

BrC1(Br)CC1(c1ccccc1)c1ccccc1
T/C (dose: 100.0 mg/kg/injection, schedule: Q01DX009 (ip), vehicle: Klucel (hydroxypropylcellulose) (HPC)): 110 % of control | T/C (dose: 200.0 mg/kg/injection, schedule: Q01DX009 (ip), vehicle: Klucel (hydroxypropylcellulose) (HPC)): 110 % of control | T/C (dose: 400.0 mg/kg/injection, schedule: Q01DX009 (ip), vehicle: Klucel (hydroxypropylcellulose) (HPC)): 105 % of control

CCCCNP(=O)(N1CC1C)N1CC1C (stereo unspecified)
T/C (dose: 33.0 mg/kg/injection, schedule: Q04DX003 (ip), vehicle: saline): 122 % of control | T/C [19]: 175 % of control and 181 % of control | T/C [13]: 90 % of control

CC1CCCCN1CC(Cl)Cl (stereo unspecified)
T/C [5]: 122 % of control | T/C [19]: 109 % of control | T/C [6]: 150 % of control | T/C [13]: 104 % of control | T/C [14]: 122 % of control

CNCCSS(=O)(=O)CCNC
T/C (dose: 100.0 mg/kg/injection, schedule: Q01DX005 (ip), vehicle: saline): 94 % of control
